In ChEMBL document CHEMBL4507260 (2021):

What was measured:
Details in all cases: Compound concentration 1000.0 nM
[1] = system: ALK tyrosine kinase receptor (Homo sapiens), Q9UM73 [C1156Y]
[2] = target: Dual specificity testis-specific protein kinase 1 (Homo sapiens) (UniProt Q15569)
[3] = target: Serine/threonine-protein kinase TBK1 (Homo sapiens) (UniProt Q9UHD2)
[4] = system: Tyrosine-protein kinase ABL1 (Homo sapiens), P00519 [Y253F]
[5] = target: STE20/SPS1-related proline-alanine-rich protein kinase (Homo sapiens) (UniProt Q9UEW8)
[6] = target: Mitogen-activated protein kinase 15 (Homo sapiens) (UniProt Q8TD08)
[7] = target: Dual specificity mitogen-activated protein kinase kinase 4 (Homo sapiens) (UniProt P45985)
[8] = target: Receptor-type tyrosine-protein kinase FLT3 (Homo sapiens) (UniProt P36888)
[9] = target: Receptor tyrosine-protein kinase erbB-4 (Homo sapiens) (UniProt Q15303)
[10] = target: Protein-tyrosine kinase 6 (Homo sapiens) (UniProt Q13882)
[11] = target: Ephrin type-A receptor 8 (Homo sapiens) (UniProt P29322)
[12] = target: Mast/stem cell growth factor receptor Kit (Homo sapiens) (UniProt P10721)
[13] = target: MAP/microtubule affinity-regulating kinase 4 (Homo sapiens) (UniProt Q96L34)
[14] = target: Cyclin-dependent kinase 2 (Homo sapiens) (UniProt P24941)
[15] = system: Epidermal growth factor receptor (Homo sapiens), P00533 [L861Q]
[16] = system: Epidermal growth factor receptor (Homo sapiens), P00533 [L858R]
[17] = target: Epidermal growth factor receptor (Homo sapiens) (UniProt P00533)
[18] = target: Activin receptor type-2B (Homo sapiens) (UniProt Q13705)
[19] = target: Protein kinase C eta type (Homo sapiens) (UniProt P24723)
[20] = target: cAMP-dependent protein kinase catalytic subunit alpha (Homo sapiens) (UniProt P17612)
[21] = system: Leucine-rich repeat serine/threonine-protein kinase 2 (Homo sapiens), Q5S007 [G2019S]
[22] = target: Receptor-interacting serine/threonine-protein kinase 2 (Homo sapiens) (UniProt O43353)
[23] = target: Interleukin-1 receptor-associated kinase 4 (Homo sapiens) (UniProt Q9NWZ3)
[24] = system: Tyrosine-protein kinase ABL1 (Homo sapiens), P00519 [Q252H]
[25] = target: Peripheral plasma membrane protein CASK (Homo sapiens) (UniProt O14936)
[26] = target: Serine/threonine-protein kinase Nek5 (Homo sapiens) (UniProt Q6P3R8)
[27] = target: Ribosomal protein S6 kinase alpha-3 (Homo sapiens) (UniProt P51812)
[28] = target: Serine/threonine-protein kinase 38 (Homo sapiens) (UniProt Q15208)
[29] = target: Mitogen-activated protein kinase kinase kinase 15 (Homo sapiens) (UniProt Q6ZN16)
[30] = target: Serine/threonine-protein kinase tousled-like 2 (Homo sapiens) (UniProt Q86UE8)
[31] = target: Tyrosine-protein kinase ABL1 (Homo sapiens) (UniProt P00519)
[32] = target: Serine/threonine-protein kinase 26 (Homo sapiens) (UniProt Q9P289)
[33] = target: Mitogen-activated protein kinase 3 (Homo sapiens) (UniProt P27361)
[34] = target: Serine/threonine-protein kinase PLK3 (Homo sapiens) (UniProt Q9H4B4)
[35] = target: Mitogen-activated protein kinase 13 (Homo sapiens) (UniProt O15264)
[36] = system: Tyrosine-protein kinase ABL1 (Homo sapiens), P00519 [Q252H]; remark: listed apart in the source
[37] = target: Ribosomal protein S6 kinase alpha-4 (Homo sapiens) (UniProt O75676)
[38] = target: Mitogen-activated protein kinase kinase kinase 20 (Homo sapiens) (UniProt Q9NYL2)
[39] = target: Serine/threonine-protein kinase ICK (Homo sapiens) (UniProt Q9UPZ9)
[40] = target: Mitogen-activated protein kinase kinase kinase kinase 3 (Homo sapiens) (UniProt Q8IVH8)
[41] = target: Interleukin-1 receptor-associated kinase 3 (Homo sapiens) (UniProt Q9Y616)
[42] = target: Calcium/calmodulin-dependent protein kinase kinase 2 (Homo sapiens) (UniProt Q96RR4)
[43] = target: Receptor tyrosine-protein kinase erbB-2 (Homo sapiens) (UniProt P04626)
[44] = target: Aurora kinase A (Homo sapiens) (UniProt O14965)
[45] = target: Serine/threonine-protein kinase Nek9 (Homo sapiens) (UniProt Q8TD19)

Measured: residual activity

Ribosomal protein S6 kinase alpha-4 (Homo sapiens), sequence (O75676 whole entry, looked up): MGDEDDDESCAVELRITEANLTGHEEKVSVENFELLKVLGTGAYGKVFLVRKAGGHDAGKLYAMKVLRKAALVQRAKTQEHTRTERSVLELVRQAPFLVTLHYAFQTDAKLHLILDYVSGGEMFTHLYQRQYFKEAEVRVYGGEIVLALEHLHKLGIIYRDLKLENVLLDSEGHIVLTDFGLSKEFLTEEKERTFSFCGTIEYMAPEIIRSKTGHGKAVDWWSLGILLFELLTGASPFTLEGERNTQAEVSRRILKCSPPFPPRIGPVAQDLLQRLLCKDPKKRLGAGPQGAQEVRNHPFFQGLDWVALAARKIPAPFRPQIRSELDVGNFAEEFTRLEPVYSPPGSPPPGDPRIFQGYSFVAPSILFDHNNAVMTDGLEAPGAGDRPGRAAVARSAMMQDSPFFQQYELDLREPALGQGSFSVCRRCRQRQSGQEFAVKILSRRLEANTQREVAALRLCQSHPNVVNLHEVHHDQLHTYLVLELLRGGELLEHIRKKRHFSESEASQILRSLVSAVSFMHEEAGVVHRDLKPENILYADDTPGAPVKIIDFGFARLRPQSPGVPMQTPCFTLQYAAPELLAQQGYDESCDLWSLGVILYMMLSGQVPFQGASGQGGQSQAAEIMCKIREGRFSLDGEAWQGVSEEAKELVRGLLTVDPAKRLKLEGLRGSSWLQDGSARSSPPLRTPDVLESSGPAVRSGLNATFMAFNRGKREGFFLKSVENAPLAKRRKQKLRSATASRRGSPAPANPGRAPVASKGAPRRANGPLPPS
Mitogen-activated protein kinase 13 (Homo sapiens), sequence (O15264 whole entry): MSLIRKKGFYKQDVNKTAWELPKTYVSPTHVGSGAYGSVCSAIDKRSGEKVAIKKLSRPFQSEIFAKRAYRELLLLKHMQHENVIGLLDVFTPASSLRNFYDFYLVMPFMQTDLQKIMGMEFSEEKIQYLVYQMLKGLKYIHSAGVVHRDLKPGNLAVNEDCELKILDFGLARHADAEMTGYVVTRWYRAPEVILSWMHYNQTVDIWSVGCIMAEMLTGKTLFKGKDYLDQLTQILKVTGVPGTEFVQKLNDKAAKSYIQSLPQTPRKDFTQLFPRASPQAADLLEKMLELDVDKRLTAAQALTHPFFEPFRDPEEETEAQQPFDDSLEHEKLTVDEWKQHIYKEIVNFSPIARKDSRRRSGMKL
Serine/threonine-protein kinase PLK3 (Homo sapiens), sequence (Q9H4B4 whole entry, looked up): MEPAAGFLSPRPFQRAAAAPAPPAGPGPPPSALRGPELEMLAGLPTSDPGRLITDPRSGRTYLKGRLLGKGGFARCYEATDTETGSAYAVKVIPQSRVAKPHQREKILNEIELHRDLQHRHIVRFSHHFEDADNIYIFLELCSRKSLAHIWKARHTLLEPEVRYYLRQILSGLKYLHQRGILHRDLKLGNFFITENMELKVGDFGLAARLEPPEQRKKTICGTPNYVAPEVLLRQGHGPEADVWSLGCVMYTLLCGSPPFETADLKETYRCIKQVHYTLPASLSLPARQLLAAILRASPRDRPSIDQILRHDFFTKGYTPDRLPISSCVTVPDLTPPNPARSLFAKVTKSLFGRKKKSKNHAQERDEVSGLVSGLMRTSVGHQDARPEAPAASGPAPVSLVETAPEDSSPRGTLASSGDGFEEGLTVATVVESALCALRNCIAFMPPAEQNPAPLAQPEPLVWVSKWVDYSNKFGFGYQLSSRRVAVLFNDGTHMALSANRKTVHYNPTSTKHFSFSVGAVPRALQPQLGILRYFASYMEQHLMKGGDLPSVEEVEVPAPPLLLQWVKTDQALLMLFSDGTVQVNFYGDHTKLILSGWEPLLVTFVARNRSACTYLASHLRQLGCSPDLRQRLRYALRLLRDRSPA
Serine/threonine-protein kinase TBK1 (Homo sapiens), sequence (Q9UHD2 whole entry): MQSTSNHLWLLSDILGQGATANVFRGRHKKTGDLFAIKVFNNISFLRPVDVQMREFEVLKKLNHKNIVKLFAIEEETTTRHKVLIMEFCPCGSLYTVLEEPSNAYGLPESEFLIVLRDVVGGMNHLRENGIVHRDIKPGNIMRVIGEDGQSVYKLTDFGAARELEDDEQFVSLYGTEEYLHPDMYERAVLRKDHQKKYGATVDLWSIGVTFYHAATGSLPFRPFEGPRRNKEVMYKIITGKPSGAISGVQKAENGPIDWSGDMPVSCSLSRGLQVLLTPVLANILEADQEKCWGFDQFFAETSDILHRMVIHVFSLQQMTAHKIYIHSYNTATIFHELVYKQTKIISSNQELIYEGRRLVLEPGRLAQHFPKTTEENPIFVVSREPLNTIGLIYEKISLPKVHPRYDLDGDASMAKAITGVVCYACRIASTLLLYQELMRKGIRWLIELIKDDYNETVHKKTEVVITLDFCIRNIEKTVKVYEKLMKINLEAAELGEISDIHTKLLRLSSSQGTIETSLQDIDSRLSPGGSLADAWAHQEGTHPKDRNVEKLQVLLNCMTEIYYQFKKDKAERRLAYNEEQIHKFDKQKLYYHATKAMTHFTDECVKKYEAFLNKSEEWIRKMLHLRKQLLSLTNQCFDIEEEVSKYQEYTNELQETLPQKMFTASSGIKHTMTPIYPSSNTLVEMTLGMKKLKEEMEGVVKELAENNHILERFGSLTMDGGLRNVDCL
Interleukin-1 receptor-associated kinase 3 (Homo sapiens), sequence (Q9Y616 whole entry): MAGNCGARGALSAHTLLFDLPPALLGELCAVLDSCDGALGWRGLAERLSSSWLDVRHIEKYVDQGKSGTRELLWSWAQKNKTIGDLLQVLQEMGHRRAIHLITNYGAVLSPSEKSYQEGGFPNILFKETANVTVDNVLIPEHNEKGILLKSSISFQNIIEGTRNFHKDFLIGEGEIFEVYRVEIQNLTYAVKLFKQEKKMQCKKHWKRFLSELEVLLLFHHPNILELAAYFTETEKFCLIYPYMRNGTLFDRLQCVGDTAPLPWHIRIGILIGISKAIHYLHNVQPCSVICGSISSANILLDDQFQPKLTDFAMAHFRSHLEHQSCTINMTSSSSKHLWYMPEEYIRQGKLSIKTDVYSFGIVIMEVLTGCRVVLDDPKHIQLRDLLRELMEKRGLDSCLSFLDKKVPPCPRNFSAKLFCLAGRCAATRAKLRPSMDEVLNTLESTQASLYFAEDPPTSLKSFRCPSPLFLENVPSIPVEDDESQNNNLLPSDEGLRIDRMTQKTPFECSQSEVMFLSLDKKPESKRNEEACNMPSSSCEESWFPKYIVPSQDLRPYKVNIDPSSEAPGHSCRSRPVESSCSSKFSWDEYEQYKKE
Calcium/calmodulin-dependent protein kinase kinase 2 (Homo sapiens), sequence (Q96RR4 2-588 limits assumed): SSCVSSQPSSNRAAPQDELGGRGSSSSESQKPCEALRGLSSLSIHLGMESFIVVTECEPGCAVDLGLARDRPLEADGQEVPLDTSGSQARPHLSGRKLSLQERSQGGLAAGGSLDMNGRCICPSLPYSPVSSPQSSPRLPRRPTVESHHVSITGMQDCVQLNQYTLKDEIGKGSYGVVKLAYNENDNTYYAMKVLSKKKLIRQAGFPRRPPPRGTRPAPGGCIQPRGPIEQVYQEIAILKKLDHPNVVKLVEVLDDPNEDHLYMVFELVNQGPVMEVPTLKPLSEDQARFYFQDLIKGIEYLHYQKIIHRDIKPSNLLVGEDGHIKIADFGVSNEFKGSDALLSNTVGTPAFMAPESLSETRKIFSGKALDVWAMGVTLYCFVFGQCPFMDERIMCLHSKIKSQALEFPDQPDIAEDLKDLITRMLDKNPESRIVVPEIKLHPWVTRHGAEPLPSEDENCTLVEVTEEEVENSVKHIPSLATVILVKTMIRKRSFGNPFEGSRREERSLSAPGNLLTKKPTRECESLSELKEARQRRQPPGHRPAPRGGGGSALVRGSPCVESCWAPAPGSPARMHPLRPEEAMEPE
Serine/threonine-protein kinase ICK (Homo sapiens), sequence (Q9UPZ9 whole entry): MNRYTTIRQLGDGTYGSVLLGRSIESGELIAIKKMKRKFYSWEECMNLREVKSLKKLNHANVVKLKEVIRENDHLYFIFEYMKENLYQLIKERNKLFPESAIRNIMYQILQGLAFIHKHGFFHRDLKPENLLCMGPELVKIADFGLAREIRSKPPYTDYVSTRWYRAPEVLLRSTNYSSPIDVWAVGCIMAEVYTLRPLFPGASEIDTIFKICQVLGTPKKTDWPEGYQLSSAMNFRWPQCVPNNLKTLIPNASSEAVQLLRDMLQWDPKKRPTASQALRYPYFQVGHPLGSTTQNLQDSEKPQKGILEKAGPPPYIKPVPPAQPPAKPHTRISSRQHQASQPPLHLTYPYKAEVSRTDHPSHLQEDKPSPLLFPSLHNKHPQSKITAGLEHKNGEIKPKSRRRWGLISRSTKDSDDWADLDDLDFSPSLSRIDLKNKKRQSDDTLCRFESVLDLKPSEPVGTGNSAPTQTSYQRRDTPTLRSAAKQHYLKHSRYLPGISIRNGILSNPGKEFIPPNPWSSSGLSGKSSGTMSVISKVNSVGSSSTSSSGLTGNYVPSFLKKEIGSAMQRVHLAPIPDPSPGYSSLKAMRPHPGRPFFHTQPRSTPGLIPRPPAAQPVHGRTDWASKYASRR
Serine/threonine-protein kinase 38 (Homo sapiens), sequence (Q15208 2-465 limits assumed): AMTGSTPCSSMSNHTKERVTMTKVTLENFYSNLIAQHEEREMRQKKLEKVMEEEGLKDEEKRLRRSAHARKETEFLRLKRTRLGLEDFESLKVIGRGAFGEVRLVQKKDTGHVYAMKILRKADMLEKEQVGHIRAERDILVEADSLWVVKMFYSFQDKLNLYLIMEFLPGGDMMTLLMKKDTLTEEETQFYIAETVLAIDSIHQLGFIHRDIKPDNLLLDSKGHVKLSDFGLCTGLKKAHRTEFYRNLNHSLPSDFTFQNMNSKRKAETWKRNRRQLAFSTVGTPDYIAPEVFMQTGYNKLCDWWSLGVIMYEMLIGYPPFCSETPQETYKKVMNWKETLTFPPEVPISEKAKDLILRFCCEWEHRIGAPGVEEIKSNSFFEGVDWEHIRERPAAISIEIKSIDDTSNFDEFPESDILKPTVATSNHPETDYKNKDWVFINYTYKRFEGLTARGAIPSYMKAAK

c1ccc(N2CCN(Cc3nc4ccccc4[nH]3)CC2)nc1 [ABT-724]
inactive: [1] 100% | [2] 97% | [3] 77% | [4] 100% | [5] 100% | [6] 100% | [7] 100% | [8] 100% | [9] 95% | [10] 100% | [11] 100% | [12] 100% | [13] 100% | [14] 100% | [15] 74% | [16] 100% | [17] 99% | [18] 100% | [19] 89% | [20] 91% | [21] 100% | [22] 100% | [23] 100% | [24] 93% | [25] 97% | [26] 100% | [27] 100% | [28] 89% | [29] 100% | [30] 100% | [31] 80% | [32] 100% | [33] 100% | [34] 100% | [35] 100% | [36] 100% | [37] 100% | [38] 92% | [39] 100% | [40] 100% | [41] 100% | [42] 91% | [43] 78% | [44] 89% | [45] 100%

CSc1cccnc1N1CCN(Cc2nc3ccccc3[nH]2)CC1 [A-769]
inactive: [1] 93% | [2] 100% | [3] 100% | [4] 76% | [5] 100% | [6] 82% | [7] 89% | [8] 91% | [9] 83% | [10] 88% | [11] 95% | [12] 100% | [13] 100% | [14] 95% | [15] 100% | [16] 100% | [17] 100% | [18] 98% | [19] 100% | [20] 92% | [21] 92% | [22] 100% | [23] 74% | [24] 67% | [25] 100% | [26] 100% | [27] 77% | [28] 88% | [29] 67% | [30] 100% | [31] 70% | [32] 95% | [33] 99% | [34] 80% | [35] 100% | [36] 71% | [37] 73% | [38] 100% | [39] 68% | [40] 100% | [41] 94% | [42] 100% | [43] 88% | [44] 74% | [45] 100%
